Measured values from patent US20250332096A1, “BEVERAGE FORMULATION AND METHOD OF PROMOTING CELLULAR HYDRATION BY ENHANCING INTRACELLULAR PERMEATION” (Eastpond Laboratories Limited, priority 2024, published 2025).
One block for each compound: values may come before it.

Tests used:
[1] = Water bonding detected by NIR spectroscopy; assay type: physicochemical; details: for water-bond interactions, second-derivative NIR spectra: 0.1%-5% w/w
Method: Hydration bond energies in pure waters and solutions of the same waters containing cyclodextrin compounds were assayed using IR spectroscopy in the near and middle infrared ranges. To record linear signals throughout an entire wavelength range, attenuation from water absorbance was minimized with a short optical length cuvette. NIR range spectra were registered on a FOSS NIR Systems, Inc. 6500 spectrometer and Sample Transport Module (STM) using a 1 mm-sized cuvette. Transmission spectra were collected from 1100-2498 nm using a lead sulfide (PbS) detector and Vision 2.51 software (2001; FOSS NIRSystems, Inc.) A Perkin-Elmer Spectrum 400 FT-NIR/FT-IR spectrometer and UATR (Universal Attenuated Total Reflectance; ZnSe-diamond crystal, 1× flat top plate) sample handling unit were used to obtain spectra across 2500-15385 nm (reported as 4000-650 cm^1). Measurements were performed at 24 C using a triglycine-sulfate (TGS) detector and Spectrum ES 6.3.2 software (PerkinElmer, 2008). Three samples of water were used in the present study. A first water sample was purified by reverse osmosis, carbon filtration, ultraviolet light exposure, membrane filtration to 0.2 micron absolute, and ozonation. Second and third water samples were not purified. […] No. CYL-2322. • β-cyclodextrin (βCD also denoted as BCD). Lot. No. CYL-2518/2. • γ-cyclodextrin (γCD also denoted as GCD), Lot. No. […] No. […] No. CYL-2258. • carboxymethyl-β-cyclodextrin (CMBCD), Lot. No. CYL-2576. • quaternary-ammonium-β-cyclodextrin (QABCD).

C. elegans = C. elegans longevity in hydration modified water (Example 5); assay type: in vivo; details: for Animals alive, % of initial: 0.1% w/w in nutritive media, USA I water; for effect on C. elegans survival: added to the culture media
Method: C. elegans nematodes were grown in petri-type dishes containing normal nutrient liquid media prepared alternatively with USA I water (described in Example 2) lacking any further additive component (control) or the same water supplemented with a parent α-, β-, or γ-cyclodextrin, and/or a bioactive agent, as an active component of cellular hydration. Fifty ±3 worms were transferred to each dish. Each condition was repeated in triplicate. Experiments were repeated for USA II and BP I waters described in Example 2.
• A. Addition of parent α-, β- and γ-cyclodextrins. • B. Addition of L-arginine and nicotinamide. • C. Addition of inclusion complexes of cyclodextrins with L-arginine and nicotinamide.

[2] = Water bonding detected by NIR spectroscopy; assay type: physicochemical; details: wavelength region 900-1200 nm; 0.1%-5% w/w
pH of test solutions = assay type: physicochemical; details: purified water
Method: (§1) 1:1 mol/mol stoichiometry complexes were prepared for the experiment. Nicotinic acid/alpha-CD complex was prepared by dissolving 11.22 g nicotinic acid and 98.63 g alpha-CD (89.66 g on dry basis) in 700 ml purified water. Nicotinamide/alpha-CD complex was prepared by dissolving 5.57 g nicotinamide and 49.3 g alpha-CD (44.4 g on dry basis) in 350 ml purified water and L-arginine/alpha-CD complex was prepared by dissolving 15.18 g L-arginine and 94.26 g alpha-CD (85.69 g on dry basis) in 700 ml purified water. Further, for all the three complexes, the liquid was frozen in dry ice bath and lyophilized. The dry lyophilizate was ground and sieved.
(§2) Clarity, pH, conductivity, density, viscosity, turbidity, surface tension and osmolality were determined in solutions prepared with purified water. […]

[3] = Conductivity of test solutions; assay type: physicochemical; details: purified water
Method: as §1, §2

[4] = Density measurements of test solutions; assay type: physicochemical
Method: The current study further manifests the density measurements in a cyclodextrin concentration dependent manner.
Water samples used were bottled water and tap water; wherein the tap water comprises the following impurities and properties: Free active chlorine (0.18 mg/1), Chloride (24 mg/1), Iron (6 μg/1), Manganese (2 μg/1), Nitrate (9 mg/1), Nitrite (<0.03 mg/1), Ammonium (<0.04 mg/1), Hardness of water (122 mg/l CaO), Conductivity (442 μS/cm) and pH 8. Purified water was produced by removal of dissolved ions by Merck/Millipore Synergy® Water Purification System at Cyclolab. The water quality produced Type 1 water (18.2 MΩ·cm at 25° C. ultrapure water) from pretreated water.
as §1, §2
However, it may not be established exactly which ionic species (Mg2+, Ca2+, Na+) causes this perturbation.

[5] = Viscosity of test solutions; assay type: physicochemical; details: purified water, 2.00%
Method: as §1
Clarity, pH, conductivity, density, viscosity, turbidity, surface tension and osmolality were determined in solutions prepared with purified water.

[6] = Turbidity of test solutions; assay type: physicochemical; details: purified water (reference)
Method: as §1, §2

[7] = Visual inspection (clarity) of test solutions; assay type: physicochemical; details: purified water
Method: as §1, §2

[8] = Surface tension of test solutions; assay type: physicochemical; details: purified water
Method: as §1, §2

[9] = tested on: Wheat seeds (Triticum aestivum); test: Wheat seed germination; assay type: in vivo; details: 0.5% w/w in USA I water
Method: Wheat seeds (Triticum aestivum) were germinated using USA I, USA II, and BP I waters described for Example 2. Germination rate using un-supplemented (control) water was compared to that with the same water variously supplemented with a cyclodextrin component, and/or a bioactive agent, as an active component of cellular hydration. For each condition, ten seeds were placed in continuous water contact in a Petri-type dish kept at 25 C in 12 hr light/dark cycles. Photometric images were recorded on days 1 to 6 after seeding. The percentage of seeds germinated was calculated and compared as a function of time and of the applied additive concentrations.
Water samples for seed germination were used alone with no additive, or containing cyclodextrins, or containing clathrate inclusion complexes of cyclodextrin with L-arginine or with nicotinamide (both obtained from Sigma Chemical Co.; St. Louis, MO), or with L-carnitine (from Lonza AG; Switzerland). […] Additive solutions were prepared fresh on the day of germination start.
Parent cyclodextrins α-cyclodextrin (ACD), β-cyclodextrin (BCD), and γ-cyclodextrin (GCD), were obtained from Wacker Chemie (Munich, Germany). The following derivatized cyclodextrins were obtained from Cyclolab Ltd. (Budapest, Hungary): hydroxypropylated-beta-cyclodextrin (DS-3)(HPBCD), carboxymethylated-β-cyclodextrin (DS-3.5)(CMBCD), 2-hydroxy-3-N,N,N-trimethylamino)propyl-β-cyclodextrin chloride (DS-3.6)(QABCD).
Germination kinetics in control and additive-modified water under identical conditions were quantified as the percentage of the seeds having a sprout. Each determination consisted of 100 seeds for each parameter. Results are reported in Table 5, below, and in FIGS. 11-13. • A) Cyclodextrin/L-Arg Inclusion Complex Increases Seed Germination.

water-bond interactions, second-derivative NIR spectra ([1]; 1200-1500 nm): significantly modified
water-bond interactions, second-derivative NIR spectra ([1]; 1620-1710 nm): significantly modified
water-bond interactions, second-derivative NIR spectra ([1]; 2170-2370 nm): further significantly modified
modification of micro-structure of hydrogen bonded cluster systems in bulk water (spectral changes) ([1]; comparison among cyclodextrin-treated water samples): largest
water-bond interactions, second-derivative NIR spectra [2]: significantly modified
Compound: 2-hydroxy-3-N,N,N-trimethylamino)propyl-β-cyclodextrin chloride [Quaternary-ammonium-β-Cyclodextrin]
Animals alive, % of initial (C. elegans; life span 10 days): 98 % of initial
Animals alive, % of initial (C. elegans; life span 15 days): 13 % of initial
Animals alive, % of initial (C. elegans; life span 18 days): 2 % of initial

water-bond interactions, second-derivative NIR spectra ([1]; 1200-1500 nm): significantly modified
water-bond interactions, second-derivative NIR spectra ([1]; 1620-1710 nm): significantly modified
water-bond interactions, second-derivative NIR spectra ([1]; 2170-2370 nm): significantly modified
water-bond interactions, second-derivative NIR spectra [2]: further significantly modified
Compound: CC(O)COC[C@H]1O[C@@H]2O[C@H]3[C@H](O)[C@@H](O)[C@@H](O[C@H]4[C@H](O)[C@@H](O)[C@@H](O[C@H]5[C@H](O)[C@@H](O)[C@@H](O[C@H]6[C@H](O)[C@@H](O)[C@@H](O[C@H]7[C@H](O)[C@@H](O)[C@@H](O[C@H]8[C@H](O)[C@@H](O)[C@@H](O[C@H]1[C@H](O)[C@H]2O)O[C@@H]8COCC(C)O)O[C@@H]7COCC(C)O)O[C@@H]6COCC(C)O)O[C@@H]5COCC(C)O)O[C@@H]4COCC(C)O)O[C@@H]3COCC(C)O (stereo partly drawn) [HP-β-Cyclodextrin, 2-hydroxypropyl-β-cyclodextrin]
Animals alive, % of initial (C. elegans; life span 10 days): 96 % of initial
Animals alive, % of initial (C. elegans; life span 15 days): 17 % of initial
Animals alive, % of initial (C. elegans; life span 18 days): 0 % of initial

water-bond interactions, second-derivative NIR spectra ([1]; 1200-1500 nm): further significantly modified
water-bond interactions, second-derivative NIR spectra ([1]; 1620-1710 nm): significantly modified
water-bond interactions, second-derivative NIR spectra ([1]; 2170-2370 nm): significantly modified
water-bond interactions, second-derivative NIR spectra [2]: further significantly modified
Compound: carboxymethyl-β-cyclodextrin
Animals alive, % of initial (C. elegans; life span 10 days): 94 % of initial
Animals alive, % of initial (C. elegans; life span 15 days): 11 % of initial
Animals alive, % of initial (C. elegans; life span 18 days): 0 % of initial

Second part, the compound before the results:

Compound: OC[C@H]1O[C@@H]2O[C@H]3[C@H](O)[C@@H](O)[C@@H](O[C@H]4[C@H](O)[C@@H](O)[C@@H](O[C@H]5[C@H](O)[C@@H](O)[C@@H](O[C@H]6[C@H](O)[C@@H](O)[C@@H](O[C@H]7[C@H](O)[C@@H](O)[C@@H](O[C@H]8[C@H](O)[C@@H](O)[C@@H](O[C@H]9[C@H](O)[C@@H](O)[C@@H](O[C@H]1[C@H](O)[C@H]2O)O[C@@H]9CO)O[C@@H]8CO)O[C@@H]7CO)O[C@@H]6CO)O[C@@H]5CO)O[C@@H]4CO)O[C@@H]3CO [Gamma Cyclodextrin, γ-cyclodextrin]
pH (pH of test solutions; 0.05%): 6.82
pH (pH of test solutions; 0.10%): 6.79
pH (pH of test solutions; 1.00%): 6.87
pH (pH of test solutions; 2.00%): 6.77
Conductivity ([3]; 0.05%): 25.0 μS · cm^−1
Conductivity ([3]; 0.10%): 25.0 μS · cm^−1
Conductivity ([3]; 1.00%): 27.0 μS · cm^−1
Conductivity ([3]; 2.00%): 27.0 μS · cm^−1
Density (at 22 C.) ([4]; Tap water, 0.05%): 0.9997 ± 0.0007 g/cm³
Density (at 22 C.) ([4]; Tap water, 0.10%): 1.0002 ± 0.0004 g/cm³
Density (at 22 C.) ([4]; Tap water, 1.00%): 1.0035 ± 0.0007 g/cm³
Density (at 22 C.) ([4]; Tap water, 2.00%): 1.0094 ± 0.0006 g/cm³
Density (at 22 C.) ([4]; purified water, 0.05%): 0.995 ± 0.001 g/cm³
Viscosity (25 C.) [5]: 0.97 cP
Turbidity (Abs, λ = 410 nm) ([6]; 1.00%): 0.065 Abs
Turbidity (Abs, λ = 410 nm) ([6]; 2.00%): 0.108 Abs
Visual Inspection ([7]; 0.05%): clear
Visual Inspection ([7]; 0.10%): clear
Visual Inspection ([7]; 1.00%): hazy
Visual Inspection ([7]; 2.00%): hazy
Surface Tension ([8]; 0.05%): 72 mN · m^−1
Surface Tension ([8]; 0.10%): 72 mN · m^−1
Surface Tension ([8]; 1.00%): 73 mN · m^−1
Surface Tension ([8]; 2.00%): 73 mN · m^−1
number of animals surviving to old ages (C. elegans; after day 15, 0.1% w/w): significantly increased
Animals alive, % of initial (C. elegans; life span 10 days): 100 % of initial
Animals alive, % of initial (C. elegans; life span 15 days): 13 % of initial
Animals alive, % of initial (C. elegans; life span 18 days): 2 % of initial

Compound: N=C(N)NCCC[C@H](N)C(=O)O [L-arginine, reference compound]
effect on C. elegans survival (C. elegans): little effect

Compound: NC(=O)c1cccnc1 [nicotinamide, reference compound]
wheat seed germination, percentage of the seeds having a sprout ([9]; day 0): 0%
wheat seed germination, percentage of the seeds having a sprout ([9]; day 1): 0%
wheat seed germination, percentage of the seeds having a sprout ([9]; day 2): 4%
wheat seed germination, percentage of the seeds having a sprout ([9]; day 3): 10%
wheat seed germination, percentage of the seeds having a sprout ([9]; day 4): 60%
effect on C. elegans survival (C. elegans): little effect

Compound: OC[C@H]1O[C@@H]2O[C@H]3[C@H](O)[C@@H](O)[C@@H](O[C@H]4[C@H](O)[C@@H](O)[C@@H](O[C@H]5[C@H](O)[C@@H](O)[C@@H](O[C@H]6[C@H](O)[C@@H](O)[C@@H](O[C@H]7[C@H](O)[C@@H](O)[C@@H](O[C@H]8[C@H](O)[C@@H](O)[C@@H](O[C@H]1[C@H](O)[C@H]2O)O[C@@H]8CO)O[C@@H]7CO)O[C@@H]6CO)O[C@@H]5CO)O[C@@H]4CO)O[C@@H]3CO [β-Cyclodextrin, β-cyclodextrin]
Animals alive, % of initial (C. elegans; life span 10 days): 100 % of initial
Animals alive, % of initial (C. elegans; life span 15 days): 18 % of initial
Animals alive, % of initial (C. elegans; life span 18 days): 0 % of initial
